One assay relates to Aβtotal. Put plainly: Screening for γ-secretase-modulating activity: Aβtotal in supernatant of SKNBE2 cells carrying hAPP 695 wild type (Alphalisa). The format is cell-based, human. As to conditions: overnight incubation, Alphalisa on supernatant. On the procedure:
(§1) Pharmacology A) Screening of the Compounds of the Invention for γ-Secretase-Modulating Activity
(§2) Screening was carried out using SKNBE2 human neuroblastoma cells carrying the hAPP 695—wild type, grown in Dulbecco's Modified Eagle's Medium/Nutrient mixture F-12 (DMEM/NUT-mix F-12) (HAM) provided by Invitrogen (cat no. 10371-029) containing 5% Serum/Fe supplemented with 1% non-essential amino acids, 1-glutamine 2 mM, Hepes 15 mM, penicillin 50 U/mL (units/mL) en streptomycin 50 μg/mL. Cells were grown to near confluency.
(§3) The screening was performed using a modification of the assay as described in Citron et al (1997) Nature Medicine 3: 67. Briefly, cells were plated in a 384-well plate at 10^4 cells/well in Ultraculture (Lonza, BE12-725F) supplemented with 1% glutamine (Invitrogen, 25030-024), 1% non-essential amino acid (NEAA), penicillin 50 U/mL en streptomycin 50 μg/mL in the presence of test compound at different test concentrations. The cell/compound mixture was incubated overnight at 37° C., 5% CO2. The next day the media were assayed by two sandwich immuno-assays, for Aβ42 and Aβtotal.
(§4) Aβtotal and Aβ42 concentrations were quantified in the cell supernatant using the Aphalisa technology (Perkin Elmer). Alphalisa is a sandwich assay using biotinylated antibody attached to streptavidin coated donorbeads and antibody conjugated to acceptor beads. In the presence of antigen, the beads come into close proximity. The excitation of the donor beads provokes the release of singlet oxygen molecules that trigger a cascade of energy transfer in the acceptor beads, resulting in light emission. To quantify the amount of Aβ42 in the cell supernatant, monoclonal antibody specific to the C-terminus of Aβ42 (JRF/cAβ42/26) was coupled to the receptor beads and biotinylated antibody specific to the N-terminus of Aβ (JRF/AβN/25) was used to react with the donor beads. To quantify the amount of Aβ total in the cell supernatant, monoclonal antibody specific to the N-terminus of Aβ (JRF/AβN/25) was coupled to the receptor beads and biotinylated antibody specific to the mid region of Aβ (biotinylated 4G8) was used to react with the donor beads.
(§5) To obtain the values reported in Table 3, the data are calculated as percentage of the maximum amount of amyloid Beta 42 measured in the absence of the test compound. The sigmoidal dose response curves were analyzed using nonlinear regression analysis with percentage of the control plotted against the log concentration of the compound. A 4-parameter equation was used to determine the IC50.
(In general: Bead proximity is the source of the signal in Alpha formats.)

The subject of a further assay is Aβ42. The assay can be described thus: Screening for γ-secretase-modulating activity: Aβ42 in supernatant of SKNBE2 cells carrying hAPP 695 wild type (Alphalisa). The format is cell-based, human. As to conditions: overnight incubation, Alphalisa on supernatant. On the procedure:
as §1, §2, §3, §4, §5

Setting [1] is: SKNBE2 human neuroblastoma cells carrying hAPP 695 wild type.
Setting [2] is: Homo sapiens, SKNBE2, SKNBE2 human neuroblastoma cells carrying hAPP 695 wild type.

Bounds are passed on as bounds.

Take `COc1c(-n2cnc(C)c2)ccc2[nH]c(-c3cn4c(n3)C(c3ccc(F)cc3C)CCC4)cc12` (single isomer, unassigned) [Compound 79, 8-(4-fluoro-2-methylphenyl)-5,6,7,8-tetrahydro-2-[4-methoxy-5-(4-methyl-1H-imidazol-1-yl)-1H-indol-2-yl]-imidazo[1,2-a]pyridine]: the IC50 in the assay with Aβtotal (setting [1]) is more than 10000 nM; in the assay with Aβ42 (setting [1]) it was 186 nM.
On to `Cc1cn(-c2cnc3[nH]c(-c4nc5n(n4)CCCC5c4ccc(F)cc4C)cc3c2)cn1` (single isomer, unassigned) [Compound 88, 8-(4-fluoro-2-methylphenyl)-5,6,7,8-tetrahydro-2-[5-(4-methyl-1H-imidazol-1-yl)-1H-pyrrolo[2,3-b]pyridin-2-yl]-[1,2,4]triazolo[1,5-a]pyridine], for which the 50% inhibitory concentration (IC50) with Aβtotal (setting [2]) is more than 10000 nM; with Aβ42 (setting [1]), 65 nM.
Take `Cc1cc(F)ccc1C1CCCn2cc(-c3cc4nc(-c5cnn(C)c5)ccc4[nH]3)nc21` (stereo not drawn) [Compound 85, 2-[8-(4-fluoro-2-methylphenyl)-5,6,7,8-tetrahydroimidazo[1,2-a]pyridin-2-yl]-5-(1-methyl-1H-pyrazol-4-yl)-1H-pyrrolo[3,2-b]pyridine]: the half-maximal inhibitory concentration (IC50) in the assay on Aβtotal (setting [2]) is more than 10000 nM; in the assay with Aβ42 (setting [1]), 9120 nM.
The corresponding values for `Cc1cc(F)ccc1C1OCCn2cc(-c3cc4nc(-c5cnn(C)c5)ccc4[nH]3)nc21` (single isomer, unassigned) [Compound 101, 8-(4-fluoro-2-methylphenyl)-5,6-dihydro-2-[5-(1-methyl-1H-pyrazol-4-yl)-1H-pyrrolo[3,2-b]pyridin-2-yl]-8H-imidazo[2,1-c][1,4]oxazine] are more than 10000 nM and 2190 nM.
In the case of `COc1c(C#N)ccc2[nH]c(-c3cn4c(n3)C(c3c(F)cccc3C(F)(F)F)OCC4)cc12` (stereo not drawn) [Compound 126, 2-[8-[2-fluoro-6-(trifluoromethyl)phenyl]-5,6-dihydro-8H-imidazo[2,1-c][1,4]oxazin-2-yl]-4-methoxy-1H-indole-5-carbonitrile], the IC50 with Aβtotal (setting [2]) is more than 10000 nM; in the assay with Aβ42 (setting [1]) it was 55 nM.
Consider `COc1cc2[nH]c(-c3nc4n(n3)CCCC4c3ccccc3C(F)(F)F)cc2cc1C#N` (stereo not drawn) [Compound 28, 6-methoxy-2-[5,6,7,8-tetrahydro-8-[2-(trifluoromethyl)phenyl][1,2,4]triazolo[1,5-a]pyridin-2-yl]-1H-indole-5-carbonitrile], for which the IC50 in the assay on Aβtotal (setting [2]) is more than 10000 nM; in the assay with Aβ42 (setting [2]), 107 nM.
`COc1c(C#N)ccc2[nH]c(-c3cn4c(n3)C(c3cc(C(F)(F)F)ccc3F)OCC4)cc12` (stereo not drawn) [Compound 165, 2-[8-[2-fluoro-5-(trifluoromethyl)phenyl]-5,6-dihydro-8H-imidazo[2,1-c][1,4]oxazin-2-yl]-4-methoxy-1H-indole-5-carbonitrile]: the IC50 is more than 10000 nM in the assay with Aβtotal (setting [1]) and 4360 nM with Aβ42 (setting [1]).
On to `COc1c(C#N)ccc2[nH]c(-c3cn4c(n3)C(c3c(F)cccc3Cl)OCC4)cc12` (stereo not drawn) [Compound 119, 2-[8-(2-chloro-6-fluorophenyl)-5,6-dihydro-8H-imidazo[2,1-c][1,4]oxazin-2-yl]-4-methoxy-1H-indole-5-carbonitrile], for which the 50% inhibitory concentration (IC50) with Aβtotal (setting [2]) is more than 10000 nM; in the assay with Aβ42 (setting [2]), 55 nM.
In the case of `COc1c(C#N)ccc2[nH]c(-c3cn4c(n3)C(c3c(F)cccc3Cl)OCC4)cc12` (single isomer, unassigned) [Compound 123, 2-[8-(2-chloro-6-fluorophenyl)-5,6-dihydro-8H-imidazo[2,1-c][1,4]oxazin-2-yl]-4-methoxy-1H-indole-5-carbonitrile], the values for the 50% inhibitory concentration (IC50) in the assay with Aβtotal (setting [1]) and in the assay on Aβ42 (setting [1]) were more than 10000 nM and 2820 nM, respectively.
Turning to `COCc1ccccc1C1CCCn2nc(-c3cc4c(OC)c(C#N)ccc4[nH]3)nc21` (stereo not drawn) [Compound 90, 4-methoxy-2-[5,6,7,8-tetrahydro-8-[2-(methoxymethyl)phenyl][1,2,4]triazolo[1,5-a]pyridin-2-yl]-1H-indole-5-carbonitrile], the IC50 with Aβtotal (setting [1]) was more than 10000 nM; in the assay with Aβ42 (setting [1]), 40 nM.
The corresponding values for `Cc1cn(-c2cnc3[nH]c(-c4nc5n(n4)CCCC5c4ccc(F)cc4C)cc3c2)cn1` (single isomer, unassigned) [Compound 87, 8-(4-fluoro-2-methylphenyl)-5,6,7,8-tetrahydro-2-[5-(4-methyl-1H-imidazol-1-yl)-1H-pyrrolo[2,3-b]pyridin-2-yl]-[1,2,4]triazolo[1,5-a]pyridine] are more than 10000 nM and 447 nM.
On to `Cc1ccc(C(F)(F)F)cc1C1CCCn2nc(-c3cc4cc(C#N)cnc4[nH]3)nc21` (stereo not drawn) [Compound 3, 2-[5,6,7,8-tetrahydro-8-[2-methyl-5-(trifluoromethyl)phenyl][1,2,4]triazolo[1,5-a]pyridin-2-yl]-1H-pyrrolo[2,3-b]pyridine-5-carbonitrile], for which the IC50 in the assay on Aβtotal (setting [2]) is more than 10000 nM; with Aβ42 (setting [2]), 437 nM.
Take `CCc1cc(F)ccc1C1OCCn2nc(-c3cc4cc(C#N)ccc4[nH]3)nc21` (stereo not drawn) [Compound 95, 2-[8-(2-ethyl-4-fluorophenyl)-5,6-dihydro-8H-[1,2,4]triazolo[5,1-c][1,4]oxazin-2-yl]-1H-indole-5-carbonitrile]: the concentration for half-maximal inhibition (IC50) was more than 10000 nM with Aβtotal (setting [2]) and 355 nM in the assay with Aβ42 (setting [2]).
For the molecule `Cc1cn(-c2ccc3[nH]c(-c4nc5n(n4)CCCC5c4ccc(F)cc4C)cc3c2)cn1` (single isomer, unassigned) [Compound 76, 8-(4-fluoro-2-methylphenyl)-5,6,7,8-tetrahydro-2-[5-(4-methyl-1H-imidazol-1-yl)-1H-indol-2-yl]-[1,2,4]triazolo[1,5-a]pyridine], the half-maximal inhibitory concentration (IC50) is more than 10000 nM in the assay with Aβtotal (setting [2]) and 141 nM in the assay with Aβ42 (setting [1]).
In the case of `COc1c(C#N)ccc2[nH]c(-c3nc4n(n3)CCOC4c3cc(C(F)(F)F)ccc3F)cc12` (single isomer, unassigned) [Compound 161, 2-[8-[2-fluoro-5-(trifluoromethyl)phenyl]-5,6-dihydro-8H-[1,2,4]triazolo[5,1-c][1,4]oxazin-2-yl]-4-methoxy-1H-indole-5-carbonitrile], the IC50 in the assay on Aβtotal (setting [1]) is more than 10000 nM; in the assay with Aβ42 (setting [1]) it was 98 nM.
Turning to `COc1c(C#N)ccc2[nH]c(-c3cn4c(n3)C(c3cccc(C)c3F)OCC4)cc12` (single isomer, unassigned) [Compound 135, 2-[8-(2-fluoro-3-methylphenyl)-5,6-dihydro-8H-imidazo[2,1-c][1,4]oxazin-2-yl]-4-methoxy-1H-indole-5-carbonitrile], the 50% inhibitory concentration (IC50) is more than 10000 nM in the assay on Aβtotal (setting [2]) and 36 nM with Aβ42 (setting [1]).
On to `COc1c(C#N)ccc2[nH]c(-c3nc4n(n3)CCOC4c3c(C)cccc3F)cc12` (stereo not drawn) [Compound 129, 2-[8-(2-fluoro-6-methylphenyl)-5,6-dihydro-8H-[1,2,4]triazolo[5,1-c][1,4]oxazin-2-yl]-4-methoxy-1H-indole-5-carbonitrile], for which the half-maximal inhibitory concentration (IC50) with Aβtotal (setting [2]) is more than 10000 nM; in the assay with Aβ42 (setting [1]) it was 46 nM.
Regarding `COc1c(-n2cnc(C)c2)ccc2[nH]c(-c3cn4c(n3)C(c3ccc(F)cc3C)OCC4)cc12` (single isomer, unassigned) [Compound 112, 8-(4-fluoro-2-methylphenyl)-5,6-dihydro-2-[4-methoxy-5-(4-methyl-1H-imidazol-1-yl)-1H-indol-2-yl]-8H-imidazo[2,1-c][1,4]oxazine], the IC50 was more than 10000 nM in the assay with Aβtotal (setting [2]) and 21 nM in the assay on Aβ42 (setting [1]).
As for `Cc1ccccc1C1CCCn2nc(-c3cc4cc(C#N)ccc4[nH]3)nc21` (stereo not drawn) [Compound 14, 2-[5,6,7,8-tetrahydro-8-(2-methylphenyl)[1,2,4]triazolo[1,5-a]pyridin-2-yl]-1H-indole-5-carbonitrile], the 50% inhibitory concentration (IC50) in the assay with Aβtotal (setting [1]) is more than 10000 nM; in the assay on Aβ42 (setting [1]), 2950 nM.
For `Cc1ccccc1C1CCCn2nc(-c3cc4cc(C#N)ncc4[nH]3)nc21` (stereo not drawn) [Compound 24, 2-[5,6,7,8-tetrahydro-8-(2-methylphenyl)[1,2,4]triazolo[1,5-a]pyridin-2-yl]-1H-pyrrolo[2,3-c]pyridine-5-carbonitrile], the half-maximal inhibitory concentration (IC50) is more than 10000 nM with Aβtotal (setting [2]) and 257 nM in the assay on Aβ42 (setting [2]).
The corresponding values for `Cc1cn(-c2ccc3[nH]c(-c4nc5n(n4)CCOC5c4ccc(F)c(F)c4C)cc3c2)cn1` (stereo not drawn) [Compound 104, 8-(3,4-difluoro-2-methylphenyl)-5,6-dihydro-2-[5-(4-methyl-1H-imidazol-1-yl)-1H-indol-2-yl]-8H-[1,2,4]triazolo[5,1-c][1,4]oxazine] are more than 10000 nM and 44 nM.

One may read the IC50 as the concentration that gives 50% inhibition. Low values mean greater potency, high ones weaker potency.
